These results are taken from patent US20020099070A1, “Dihydronaphthyridine potassium channel openers” (priority 2000, published 2002).

Each structure is given as a SMILES string.

Experiment [1] deals with primary cultured guinea-pig urinary bladder (GPB) cells. Description: Membrane hyperpolarization (MHP) assay, DiBAC(4)3 / FLIPR. The settings on record: for Maximal Response (% P1075) / Emax: maximal steady-state hyperpolarization, normalized to 10 μM P1075 = 100%; for EC50: membrane hyperpolarization in GPB cells; for Emax: read-out: Maximal Response (% P1075). The experiment is classed as cell-based. As to the method:
Compounds were evaluated for potassium channel opening activity using primary cultured guinea-pig urinary bladder (GPB) cells.
For the preparation of urinary bladder smooth muscle cells, urinary bladders were removed from male guinea-pigs (Hartley, Charles River, Wilmington, Mass.) weighing 300-400 g and placed in ice-cold Ca^2+-free Krebs solution (Composition, mM: KCl, 2.7; KH2PO4, 1.5; NaCl, 75; Na2HPO4, 9.6; Na2HPO4.7H2O, 8; MgSO4, 2; glucose, 5; HEPES, 10; pH 7.4). Cells were isolated by enzymatic dissociation as previously described with minor modifications in Klockner, U. and Isenberg, G., Pflugers Arch. 1985, 405, 329-339, hereby incorporated by reference. The bladder was cut into small sections and incubated in 5 mL of the Kreb's solution containing 1 mg/mL collagenase (Sigma, St. Louis, Mo.) and 0.2 mg/mL pronase (Calbiochem, La Jolla, Calif.) with continuous stirring in a cell incubator for 30 minutes. The mixture was then centrifuged at 1300×g for 5 minutes, and the pellet resuspended in Dulbecco's PBS (GIBCO, Gaithersburg, Md.) and recentrifuged to remove residual enzyme. The cell pellet was resuspended in 5 mL growth media (composition: Dulbecco's modified Eagle's medium supplemented with 10% fetal bovine serum, 100 units/mL penicillin, 100 units/mL streptomycin and […] amphotericin B) and further dissociated by pipetting the suspension through a flame-polished Pasteur pipette and passing it through a polypropylene mesh membrane (Spectrum, Houston, Tex.). The cell density was adjusted to 100,000 cells/mL by resuspension in growth media. Cells were plated in clear-bottomed black 96-well plates (Packard) for membrane potential studies at a density of 20,000 cells/well and maintained in a cell incubator with 90% air: 10% CO2 until confluent. Cells were confirmed to be of smooth muscle type by cytoskeletal staining using a monoclonal mouse anti human-α-smooth muscle actin (Biomeda, Foster City, Calif.).
Functional activity at potassium channels was measured by evaluating changes in membrane potential using the bis-oxonol dye DiBAC(4)3 (Molecular Probes) in a 96-well cell-based kinetic assay system, Fluorescent Imaging Plate Reader (FLIPR) (K. S. Schroeder et al., J. Biomed. Screen., v. 1 pp. 75-81 (1996)), hereby incorporated by reference. DiBAC(4)3 is an anionic potentiometric probe which partitions between cells and extracellular solution in a membrane potential-dependent manner. With increasing membrane potential (for example, K^+ depolarization), the probe fuither partitions into the cell; this is measured as an increase in fluorescence due to dye interaction with intracellular lipids and proteins. Conversely, decreasing membrane potential (hyperpolarization by potassium channel openers) evokes a decrease in fluorescence.
Confluent guinea-pig urinary bladder cells cultured in black clear-bottomed 96-well plates were rinsed twice with […] assay buffer (composition, mM: HEPES, 20; NaCl, 120; KCl, 2; CaCl2, 2; MgCl2, 1; glucose, 5; pH 7.4 at 25° C.) containing 5 μM DiBAC(4)3 and incubated with […] of the buffer in a cell incubator for 30 minutes at 37° C. to ensure dye distribution across the membrane. After recording the baseline fluorescence for 5 minutes, the reference or test compounds, prepared at 10 times the concentration in the assay buffer, were added directly to the wells. Changes in fluorescence were monitored for an additional 25 minutes. Hyperpolarization responses were corrected for any background noise and were normalized to the response observed with 10 μM of the reference compound P1075, N″-cyano-N-(tert-pentyl)-N′-(3-pyridinyl)guanidine, which was assigned as 100%. P1075 is a potent opener of smooth muscle KATP channels (Quast et al., Mol. Pharmacol., v. 43 pp. 474-481 (1993)) and was prepared using the procedures described in (Manley, J. Med. Chem. (1992) 35, 2327-2340), hereby incorporated by reference. […]

Experiment [2] relates to Landrace pig bladder strips. Description: Functional potassium channel opening activity in isolated bladder strips (field-stimulated twitch). Particulars: for Index: ED50 for P1075 divided by ED50 for test agonist, averaged over tissues; for Efficacy (% P1075): maximal efficacy relative to P1075, field stimulation 0.05 Hz, 0.5 ms, 20 volts; for pD2 / EC50: negative logarithm of ED50; for EC50: Sus scrofa, read-out: pD2 (converted). As to the method:
Compounds were evaluated for functional potassium channel opening activity using tissue strips obtained from Landrace pig bladders.
Landrace pig bladders were obtained from female Landrace pigs of 9-30 kg. Landrace pigs were euthanized with an intraperitoneal injection of pentobarbital solution, Somlethal® , J. A. Webster Inc., Sterling, Mass. The entire bladder was removed and immediately placed into Krebs Ringer bicarbonate solution (composition, mM: NaCl, 120; NaHCO3, 20; dextrose, 11; KCl, 4.7; CaCl2, 2.5; MgSO4, 1.5; KH2PO4, 1.2; K2EDTA, 0.01, equilibrated with 5% CO2/95% O2 pH 7.4 at 37° C.). Propranolol (0.004 mM) was included in all of the assays to block β-adrenoceptors. The trigonal and dome portions were discarded. Strips 3-5 millimeters (mm) wide and 20 mm long were prepared from the remaining tissue cut in a circular fashion. The mucosal layer was removed. One end was fixed to a stationary glass rod and the other to a Grass FT03 transducer at a basal preload of 1.0 g. Two parallel platinum electrodes were included in the stationary glass rod to provide field stimulation of 0.05 Hz, 0.5 milli-seconds at 20 volts. This low frequency stimulation produced a stable twitch response of 100-500 centigrams. Tissues were allowed to equilibrate for at least 60 minutes and primed with 80 mM KCl. A control concentration response curve (cumulative) was generated for each tissue using the potassium channel opener P1075 as the control agonist. […] After a 60 minute rinsing period, a concentration response curve (cumulative) was generated for the test agonist in the same fashion as that used for the control agonist P1075. The maximal efficacy of each compounds (expressed as % relative to P1075) is reported. The amount of agent necessary to cause 50% of the agent's maximal response (ED50) was calculated using “ALLFIT” (DeLean et al., Am. J. Physiol., 235, E97 (1980)), and agonist potencies were expressed as pD2 (the negative logarithm). Agonist potencies were also expressed as an index relative to P1075. The index was calculated by dividing the ED50 for P1075 by the ED50 for the test agonist in a give tissue. Each tissue was used for only one test agonist, and the indices obtained from each tissue were averaged to provide an average index of potency.

`CC1=C(C#N)C(c2ccc(F)c(Br)c2)c2c(ccnc2Cl)N1` (centres unmarked) [Example 33, 4-(3-bromo-4-fluorophenyl)-5-chloro-3-cyano-2-methyl-1,4-dihydro[1,6]naphthyridine]: in experiment [1], the “Maximal Response (% P1075)” value was 65 % P1075 and the EC50 was 28 nM. Further, in experiment [2], the Index worked out at 0.0353, the “Efficacy (% P1075)” value was determined as 61 % P1075 and the pD2 worked out at 5.31.
Consider `CC1=C(C#N)C(c2ccc(F)c(Br)c2)C2=C(CCNC2=O)N1` (centres unmarked) [Example 2, 4-(3-bromo-4-fluorophenyl)-3-cyano-2-methyl-4,6,7,8-tetrahydro[1,6]naphthyridin-5(1H)-one], for which, in experiment [1] (Cavia porcellus), the Emax turned out to be 122% and the EC50 amounted to 100 nM. In addition, in experiment [2], the Index came out at 0.2653, the EC50 is 692 nM and the “Efficacy (% P1075)” value is on record as 60 % P1075.
On to `CC1=C(C#N)C(c2ccc(F)c(Br)c2)c2c(cc[nH]c2=O)N1` (centres unmarked) [Example 6, 4-(3-bromo-4-fluorophenyl)-3-cyano-2-methyl-4,6-dihydro[1,6]naphthyridin-5(1H)-one], for which, in experiment [1], the “Maximal Response (% P1075)” value is 102 % P1075 and the EC50 was 1500 nM. For the same compound, in experiment [2], the Index was determined as 0.0318, the “Efficacy (% P1075)” value is on record as 67 % P1075 and the pD2 is 4.89.
On to `CC1=C(C#N)C(c2ccc(F)c(Br)c2)c2c(cc[nH]c2=S)N1` (centres unmarked) [Example 35, 4-(3-bromo-4-fluorophenyl)-3-cyano-2-methyl-4,6-dihydro[1,6]naphthyridine-5(1H)-thione], for which, in experiment [2], the Index is recorded as 0.3068, the EC50 is 794 nM and the “Efficacy (% P1075)” value was determined as 77 % P1075.
Take `CC1=C(C#N)C(c2ccc(F)c(Br)c2)c2c(ccn(C)c2=O)N1` (centres unmarked) [Example 7, 4-(3-bromo-4-fluorophenyl)-3-cyano-2,6-dimethyl-4,6-dihydro[1,6]naphthyridin-5(1H)-one]: in experiment [2], the Index is listed as 2.826, the EC50 is 10.2 nM and the “Efficacy (% P1075)” value is given as 100 % P1075.
`CC1=C(C#N)C(c2ccc(F)c(Br)c2)c2c(cc[nH]c2=O)N1` (centres unmarked) [Example 5, 4-(3-bromo-4-fluorophenyl)-3-cyano-2-methyl-4,6-dihydro[1,6]naphthyridin-5(1H)-one]: the Emax in experiment [1] (Cavia porcellus) was 114%. In experiment [1], the EC50 was 17 nM. In experiment [2], the Index is recorded as 1.2740, the “Efficacy (% P1075)” value is reported as 98 % P1075 and the pD2 was determined as 6.85.
As to `CCC(C)(C)NC(=NC#N)Nc1cccnc1` [Example P1075, N″-cyano-N-(tert-pentyl)-N′-(3-pyridinyl)guanidine, reference compound], in experiment [2] (P1075: concentration range 10^−9 to 10^−5 M, cumulative), the “effect on stimulated twitch / contractions of the bladder” value was “completely eliminated the stimulated twitch”.
On to `CC1=C(C#N)C(c2ccc(F)c(Br)c2)c2c(ccnc2Cl)N1` (centres unmarked) [Example 34, 4-(3-bromo-4-fluorophenyl)-5-chloro-3-cyano-2-methyl-1,4-dihydro[1,6]naphthyridine], for which, in experiment [1], the “Maximal Response (% P1075)” value is reported as 90 % P1075 and the EC50 amounted to 6 nM. Besides, in experiment [2], the Index was 0.2089, the “Efficacy (% P1075)” value came to 85 % P1075 and the pD2 is on record as 6.14.
Take `CC1=C(C#N)C(c2ccc(F)c(C(F)(F)F)c2)C2=C(CCOC2=O)N1` (centres unmarked) [Example 26, 4-[4-fluoro-3-(trifluoromethyl)phenyl]-3-cyano-2-methyl-1,4,7,8-tetrahydro-5H-pyrano[4,3-b]pyridin-5-one]: in experiment [2], the Index turned out to be 0.6715, the EC50 was 275 nM and the “Efficacy (% P1075)” value turned out to be 98 % P1075.
On to `COc1nccc2c1C(c1ccc(F)c(Br)c1)C(C#N)=C(C)N2` (centres unmarked) [Example 38, 4-(3-bromo-4-fluorophenyl)-3-cyano-2-methyl-5-methoxy-1,4-dihydro[1,6]naphthyridine], for which, in experiment [2], the Index amounted to 0.2488, the EC50 is 1000 nM and the “Efficacy (% P1075)” value is on record as 78 % P1075.
